# Counter-ions that a name gives are not always drawn.
# Target: T1, 5-HT2C receptor (Homo sapiens, UniProt P28335)
# T1 construct: host or cells: U2OS
# Test: Human 5-HT2C functional assay (beta-arrestin2 recruitment, U2OS_HTR2C_β-Arrestin cells)
# Assay type: cell-based
# Settings: for EC50: beta-arrestin2 recruitment, U2OS_HTR2C_β-Arrestin cells, 1.5 h incubation, read-out: EC50 5-HT2C (potency in functional assay); for Emax: relative efficacy vs response to 10 μM 5-HT or maximal 5-HT effect (100%)
# Protocol: The functional activity of compounds of formula I was assayed by incubation with U2OS_HTR2C_β-Arrestin cells (DiscoverX, 93-0289C3) to induce beta-arrestin2 recruitment to the 5-HT2C receptor. The agonist-induced recruitment and proximity of the receptor and beta-arrestin2 leads to complementation and formation of active β-galactosidase. The enzyme complementation results in enzyme activity, which is measured following the termination of the agonist incubation using DiscoveRx's detection reagent, which contains a chemiluminescent substrate which produces a high intensity signal. Cells were plated and a medium-change to a 1% serum containing medium was performed 24h later. The next day, test compounds were added and incubated for 1.5 h before addition of detection reagent.
# The response produced was measured and compared with the response produced by 10 [mu]M 5-HT or the maximal effect induced by 5-HT (defined as 100%) to which it was expressed as a percentage response (relative efficacy). Dose response curves were constructed using Graphpad Prism (Graph Software Inc.) or using in house adapted software using a 4 parameter dose response model with variable slope (fit=(Bottom+(Top-Bottom)/(1+10^∧((Log EC50−x)*HillSlope))res=(y-fit)). Results are compiled in the table below.
# T1 sequence (P28335 33-458): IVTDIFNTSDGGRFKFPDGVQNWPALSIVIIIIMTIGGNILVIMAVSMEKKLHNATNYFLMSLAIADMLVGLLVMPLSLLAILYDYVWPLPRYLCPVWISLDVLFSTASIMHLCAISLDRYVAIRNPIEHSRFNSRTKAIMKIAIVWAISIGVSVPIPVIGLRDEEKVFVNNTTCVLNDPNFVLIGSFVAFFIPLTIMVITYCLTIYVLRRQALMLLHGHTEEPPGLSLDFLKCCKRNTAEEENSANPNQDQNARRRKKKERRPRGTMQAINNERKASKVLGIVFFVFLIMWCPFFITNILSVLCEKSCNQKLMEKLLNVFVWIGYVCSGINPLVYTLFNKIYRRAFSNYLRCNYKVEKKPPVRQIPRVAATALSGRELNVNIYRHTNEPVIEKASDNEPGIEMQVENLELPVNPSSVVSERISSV
# T1 sequence (P32121 whole entry partner): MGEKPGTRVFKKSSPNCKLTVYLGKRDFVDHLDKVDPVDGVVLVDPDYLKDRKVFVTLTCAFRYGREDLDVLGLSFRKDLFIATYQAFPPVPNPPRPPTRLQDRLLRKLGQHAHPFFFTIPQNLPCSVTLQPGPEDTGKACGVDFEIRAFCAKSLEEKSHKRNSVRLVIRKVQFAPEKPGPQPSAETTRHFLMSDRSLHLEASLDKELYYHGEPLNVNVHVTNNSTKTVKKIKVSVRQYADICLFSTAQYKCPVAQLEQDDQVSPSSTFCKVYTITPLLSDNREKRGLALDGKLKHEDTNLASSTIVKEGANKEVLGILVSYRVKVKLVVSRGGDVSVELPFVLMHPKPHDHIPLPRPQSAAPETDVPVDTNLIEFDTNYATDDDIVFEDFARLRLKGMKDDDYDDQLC
Structure (SMILES),EC50 [nM],Emax [%]
"COc1nc(NCC2CCC(C(F)(F)F)CC2)c(F)cc1CNC(=O)[C@@H]1CCCN1 (single isomer, unassigned) [Example 149]",20 to 200,
"COc1nc(OCc2cc(F)cc(F)c2)c(F)cc1CNC(=O)[C@@H]1CCCN1 [Example 5, (S)—N-((6-((3,5-Difluorobenzyl)oxy)-5-fluoro-2-methoxypyridin-3-yl)methyl)pyrrolidine-2-carboxamide Hydrochloride]",< 20,> 70
"COc1nc(OC[C@@H]2CCC(F)(F)C2)c(F)cc1CNC(=O)[C@@H]1CCCN1C [Example 16, (2S)—N-[[6-[[(1R)-3,3-Difluorocyclopentyl]methoxy]-5-fluoro-2-methoxy-3-pyridyl]methyl]-1-methyl-pyrrolidine-2-carboxamide]",< 20,> 70
"COc1nc(OC2CCC(F)(F)CC2)c(F)cc1CNC(=O)[C@@H]1C=CCN1C [Example 21, (2S)—N-[[6-(4,4-Difluorocyclohexoxy)-5-fluoro-2-methoxy-3-pyridyl]methyl]-1-methyl-2,5-dihydropyrrole-2-carboxamide]",20 to 200,> 70
"COc1nc(OCC23CC(C2)C3)c(F)cc1CNC(=O)[C@@H]1CCCN1 [Example 22, (S)—N-((6-(Bicyclo[1.1.1]pentan-1-ylmethoxy)-5-fluoro-2-methoxypyridin-3-yl)methyl)pyrrolidine-2-carboxamide Hydrochloride]",< 20,> 70
"COc1nc(OC2CCC(F)(F)CC2)c(F)cc1CNC(=O)[C@@H]1CCN1C [Example 39, (2S)—N-[[6-(4,4-Difluorocyclohexoxy)-5-fluoro-2-methoxy-3-pyridyl]methyl]-1-methyl-azetidine-2-carboxamide; Succinic Acid]",20 to 200,50 to 70
"COc1nc(OCC2CC2(F)F)c(F)cc1CNC(=O)[C@@H]1CCCN1 (stereo partly drawn) [Example 41, (2S)—N-[[6-[(2,2-Difluorocyclopropyl)methoxy]-5-fluoro-2-methoxy-3-pyridyl]methyl]pyrrolidine-2-carboxamide; Succinic Acid]",< 20,> 70
"COc1nc(OCCC(F)(F)C(F)(F)F)c(F)cc1CNC(=O)[C@@H]1CCCN1 [Example 45, (2S)—N-[[5-Fluoro-2-methoxy-6-(3,3,4,4,4-pentafluorobutoxy)-3-pyridyl]methyl]-pyrrolidine-2-carboxamide; Succinic Acid]",< 20,> 70
"COc1nc(OC(C)C(F)(F)C(F)(F)F)c(F)cc1CNC(=O)[C@@H]1CCCN1 (stereo partly drawn) [Example 50, (2S)—N-[[5-Fluoro-2-methoxy-6-(2,2,3,3,3-pentafluoro-1-methyl-propoxy)-3-pyridyl]methyl]pyrrolidine-2-carboxamide; Succinic Acid]",< 20,> 70
"COc1nc(OC2CCCCC2C(F)(F)F)c(F)cc1CNC(=O)[C@@H]1CCCN1 (stereo partly drawn) [Example 57, (2S)—N-[[5-Fluoro-2-methoxy-6-[2-(trifluoromethyl)cyclohexoxy]-3-pyridyl]methyl]pyrrolidine-2-carboxamide; 2,2,2-trifluoroacetic Acid]",< 20,> 70
"COc1nc(OC2CC3C(C2)C3(F)F)c(F)cc1CNC(=O)C1CCCN1C (stereo not drawn) [Example 64, N-[[6-[(6,6-Difluoro-3-bicyclo[3.1.0]hexanyl)oxy]-5-fluoro-2-methoxy-3-pyridyl]methyl]-1-methyl-pyrrolidine-2-carboxamide Dihydrochloride]",< 20,> 70
"COc1nc(OC2CCC(OC(F)F)CC2)c(F)cc1CNC(=O)[C@@H]1CCCN1 (stereo partly drawn) [Example 67, (2S)—N-[[6-[4-(Difluoromethoxy)cyclohexoxy]-5-fluoro-2-methoxy-3-pyridyl]-methyl]pyrrolidine-2-carboxamide]",< 20,> 70
"COc1nc(OCC(F)(C(F)(F)F)C(F)(F)F)c(F)cc1CNC(=O)[C@@H]1CCCN1 [Example 69, (S)—N-((5-Fluoro-2-methoxy-6-(2,3,3,3-tetrafluoro-2-(trifluoromethyl)propoxy)pyridin-3-yl)methyl)pyrrolidine-2-carboxamide Hydrochloride]",< 20,> 70
"COc1nc(OCC23CC4CC(CC(C4)C2)C3)c(F)cc1CNC(=O)[C@@H]1CCCN1 [Example 70, (2S)—N-[[6-(1-Adamantylmethoxy)-5-fluoro-2-methoxy-3-pyridyl]methyl]-pyrrolidine-2-carboxamide; 2,2,2-trifluoroacetic Acid]",< 20,> 70
"COc1nc(O[C@H]2CC[C@H](C(F)(F)F)CC2)c(F)cc1CNC(=O)[C@H]1NC[C@@H]1C [Example 80, (2S,3 S)—N-[[5-Fluoro-2-methoxy-6-[4-(trifluoromethyl)cyclohexoxy]-3-pyridyl]methyl]-3-methyl-azetidine-2-carboxamide; Fumaric Acid]",20 to 200,> 70
"COc1nc(OC2CCC(C(F)(F)F)CC2)c(F)cc1CNC(=O)[C@H]1NC[C@@H]2C[C@@H]21 (stereo partly drawn) [Example 85, (1R,4S,5S)—N-[[5-Fluoro-2-methoxy-6-[4-(trifluoromethyl)cyclohexoxy]-3-pyridyl]methyl]-3-azabicyclo[3.1.0]hexane-4-carboxamide Hydrochloride]",< 20,30 to 50
"COc1nc(O[C@H]2C[C@H](C(F)(F)F)C2)c(F)cc1CN(C)C(=O)[C@@H]1CCCN1 [Example 120, (2S)—N-[[5-Fluoro-2-methoxy-6-[trans-3-(trifluoromethyl)cyclobutoxy]-3-pyridyl]-methyl]-N-methyl-pyrrolidine-2-carboxamide Hydrochloride]",< 20,50 to 70
"COc1nc(O[C@H]2C[C@@H](C(F)(F)F)C2)c(F)cc1CN(C)C(=O)[C@@H]1CCCN1 [Example 121, (2S)—N-[[5-Fluoro-2-methoxy-6-[cis-3-(trifluoromethyl)cyclobutoxy]-3-pyridyl]methyl]-N-methyl-pyrrolidine-2-carboxamide Hydrochloride]",< 20,50 to 70
"COc1nc(OCc2cc(F)cc(F)c2)c(F)cc1CN(C)C(=O)[C@@H]1CCCN1 [Example 122, (2S)—N-[[6-[(3,5-Difluorophenyl)methoxy]-5-fluoro-2-methoxy-3-pyridyl]methyl]-N-methyl-pyrrolidine-2-carboxamide Hydrochloride]",< 20,> 70
"COc1nc(OC2CCC(F)(F)C2)c(F)cc1CN(C)C(=O)[C@@H]1CCCN1 (stereo partly drawn) [Example 123, (2S)—N-[[6-(3,3-Difluorocyclopentoxy)-5-fluoro-2-methoxy-3-pyridyl]methyl]-N-methyl-pyrrolidine-2-carboxamide Hydrochloride]",< 20,50 to 70
"COc1nc(OCc2ccc(F)cc2)c(F)cc1CN(C)C(=O)[C@@H]1CCCN1 [Example 124, (2S)—N-[[5-Fluoro-6-[(4-fluorophenyl)methoxy]-2-methoxy-3-pyridyl]methyl]-N-methyl-pyrrolidine-2-carboxamide Hydrochloride]",20 to 200,50 to 70
"COc1nc(CC2CCCCC2)c(F)cc1CNC(=O)[C@@H]1CCCN1 [Example 129, (2S)—N-[[6-(Cyclohexylmethyl)-5-fluoro-2-methoxy-3-pyridyl]methyl]pyrrolidine-2-carboxamide]",< 20,> 70
"COc1nc(N2CCCC2)c(F)cc1CNC(=O)[C@@H]1CCCN1 [Example 135, (2S)—N-[(5-Fluoro-2-methoxy-6-pyrrolidin-1-yl-3-pyridyl)methyl]pyrrolidine-2-carboxamide; 2,2,2-trifluoroacetic Acid]",20 to 200,> 70
"COc1nc(N2C[C@@H]3CC(F)(F)C[C@@H]3C2)c(F)cc1CNC(=O)[C@@H]1CCCN1 [Example 181, (2S)—N-[[6-[(3aR,6aS)-5,5-Difluoro-1,3,3a,4,6,6a-hexahydrocyclopenta[c]pyrrol-2-yl]-5-fluoro-2-methoxy-3-pyridyl]methyl]pyrrolidine-2-carboxamide; 2,2,2-trifluoroacetic Acid]",< 20,
"COc1nc(C(F)(F)C(Cl)c2ccccc2)c(F)cc1CN(C)C(=O)C1CCCN1 (stereo not drawn) [Example 192, N-[[6-(2-Chloro-1,1-difluoro-2-phenyl-ethyl)-5-fluoro-2-methoxy-3-pyridyl]-methyl]-N-methyl-pyrrolidine-2-carboxamide Dihydrochloride]",200 to 1000,50 to 70
